These results are taken from patent publication US20240279218A1 (Hoffmann-La Roche Inc., priority 2016, published 2024).

The target in test [1] is T1, h-GABA-A α5β3γ2 (Homo sapiens (Human), UniProt P18507+P31644). Briefly: Two-electrode voltage clamp electrophysiology in Xenopus oocytes expressing GABAA receptors, modulation of GABA EC20 current. In kind it is cell-based. A digest of the protocol: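 Values are % modulation of an EC20 GABA response, derived point by point from the ratio of compound-exposed versus control current traces (extremum taken, 100×(fold−1)). Recordings used oocytes injected with human α5, β3, γ2 mRNA, clamped at −80 mV at room temperature, at least 3 oocytes each.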
For orientation: In two-electrode clamp one electrode senses voltage and the other passes current.

The target in test [2] is T1, h-GABA-A α5β3γ2. The test is described as follows: [3H]flumazenil competition binding assay, membranes of HEK293 cells expressing human GABAA receptors. Summed up: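 Displacement of [3H]flumazenil from membranes of HEK293 cells transiently expressing human α5β3γ2 receptors, in Krebs-tris buffer pH 7.5. Incubation to equilibrium, 1 h at 4° C., then filtration and scintillation counting. Ki is the mean of two determinations.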

[3] abbreviates: % modulation of GABA EC20 = 100*(Fold increase−1), Xenopus oocytes.
Setting [4] is: Xenopus oocytes, GABA EC20, test compound at approx. 30 fold its Ki.
[5] abbreviates: displacement of [3H]flumazenil 0.5 nM, HEK293 cells expressing human receptors, mean of two determinations, read-out: Ki h-GABA-A α5β3γ2.
Setting [6] is: reference compounds, % modulation of GABA EC20.
Where [7] appears, read: reference compounds, GABAA α5β3γ2 overexpressing oocytes, GABA EC20.
Setting [8] is: reference compounds, GABAA receptor α5β3γ2, read-out: Ki α5-human.

Each structure is given as a SMILES string. Read-outs that look alike come from different tables or passages of the source.

For orientation: Ki means the equilibrium dissociation constant of an inhibitor or competing ligand from its target. On to `Cc1ccc(-c2noc(C)c2COc2ccc(C(=O)N[C@H]3CC[C@H](OCC(F)F)CC3)nn2)cn1` [Example 194, trans-N-(4-(2,2-difluoroethoxy)cyclohexyl)-6-((5-methyl-3-(6-methylpyridin-3-yl)-1,2-oxazol-4-yl)methoxy)pyridazine-3-carboxamide], for which the “Efficacy (GABA) %” value in test [1] (setting [3]) came to 84%. In test [1] (setting [4]), the “Fold increase h-GABA-A α5β3γ2 oocyte” value is on record as 1.84. Moreover, the inhibition constant (Ki) in test [2] (setting [5]) was 13.3 nM.
On the same counts, the results for `CCO[C@H]1CC[C@H](NC(=O)c2ccc(OCc3c(-c4ccc(C)nc4)noc3C)nn2)CC1` [Example 195, N-(4-ethoxycyclohexyl)-6-((5-methyl-3-(6-methylpyridin-3-yl)-1,2-oxazol-4-yl)methoxy)pyridazine-3-carboxamide] are 78%, 1.78 and 17.3 nM.
Turning to `Cc1onc(-c2cccnc2)c1COc1ccc(C(=O)NC2CCOCC2)nn1` [RE-A, 6-((5-methyl-3-(3-pyridyl)isoxazol-4-yl)methoxy)-N-tetrahydropyran-4-yl-pyridazine-3-carboxamide, reference compound], the “Efficacy (GABA) %” value in test [1] (setting [6]) was −3%. Moreover, the “Fold increase h-GABA-A α5β3γ2 oocyte” value in test [1] (setting [7]) is given as 0.97. Further, in test [2] (setting [8]), the Ki came out at 65 nM.
On the same counts, the results for `Cc1onc(-c2ccc(Cl)cn2)c1COc1ccc(C(=O)NC2CCOCC2)nn1` [RE-B, 6-((3-(5-chloro-2-pyridyl)-5-methyl-isoxazol-4-yl)methoxy)-N-tetrahydropyran-4-yl-pyridazine-3-carboxamide, reference compound] are “+3%”, 1.03 and 0.4 nM.
On the same counts, the results for `Cc1onc(-c2ccccn2)c1COc1ccc(C(=O)NC2CCOCC2)nn1` [RO-094, reference compound] are −18%, 0.82 and 2.9 nM.
`Cc1onc(-c2cccnc2)c1COc1ccc(C(=O)NC2CCOCC2)cn1` [RO-159, reference compound]: the “Efficacy (GABA) %” value in test [1] (setting [6]) is recorded as −12%. For the same compound, in test [1] (setting [7]), the “Fold increase h-GABA-A α5β3γ2 oocyte” value was 0.88. For the same compound, the Ki in test [2] (setting [8]) was determined as 28 nM.
Taken in the same sequence, the figures for `Cc1ccc(-c2noc(C)c2COc2ccc(C(=O)NC3CCOCC3)cn2)cc1` [RO-251, reference compound] were −18%, 0.82 and 1 nM.
Taken in the same sequence, the figures for `Cc1onc(-c2ccccn2)c1COc1ccc(C(=O)NC2CCOCC2)cn1` [RO-272, reference compound] were −32%, 0.68 and 1 nM.
Taken in the same sequence, the figures for `Cc1onc(-c2ccc(Cl)cn2)c1COc1ccc(C(=O)NC2CCOCC2)cn1` [RO-301, reference compound] were −18%, 0.82 and 0.2 nM.
